{"source": "paper PMC8390638", "about": "“Termitomenins F and G, Two New Lignan Glucosides from Terminalia chebula var. tomentella (Kurz) C. B. Clarke” (Natural Products and Bioprospecting, 2021)"}
{"target": "α-glucosidase", "assay": "α-glucosidase inhibitor screening assay (PNPG substrate, absorbance at 405 nm)", "type": "biochemical", "conditions": "means ± SD (n = 3), phosphate buffer pH 6.8, 37 °C, 1 h, Reed and Muench method, read-out: IC50 (one-half maximal inhibitory concentration to α-glucosidase)", "procedure": "The α-glucosidase inhibitor screening assay was conducted as reported previously and slightly modified. […] 4-Nitrophenol-α-D-glucopyranoside (PNPG) was used as an enzyme inhibitor screening model. α-glucosidase solution (0.025 U·mL^−1), PNPG (0.1 M), phosphate buffer (pH 6.8) and test samples (50 μM) were incubated in 96-well plates at 37 °C for 1 h. A microplate reader was recorded by the absorbance at 405 nm. No enzyme as the blank readings were subtracted from each well and compared to the control. In this assay, all reactions were performed in triplicate. The α-glucosidase inhibitory activity was presented as inhibition ratio. The formula to calculate the inhibition rate is as follows: inhibition rate (%) = (1 ‒ OD experimental 405 nm/OD […] 405 nm) × 100%, and IC50 values were calculated according to the Reed and Muench method.", "units": {"IC50": "µM"}}
{"smiles": "O=C1O[C@H]2[C@@H]3OC(=O)c4cc(O)c(O)c(O)c4-c4c(O)c(O)c5oc(=O)c6c(c(O)c(O)c7oc(=O)c4c5c76)-c4c(cc(O)c(O)c4O)C(=O)OC[C@H]3OC(O)[C@@H]2OC(=O)c2cc(O)c(O)c(O)c2-c2c1cc(O)c(O)c2O", "note": "(mixture of isomers) [Compound 10, punicalagin]", "IC50": "0.27 ± 0.01"}
{"smiles": "O=C(OC[C@H]1O[C@@H](OC(=O)c2cc(O)c(O)c(O)c2)[C@H](O)[C@@H](OC(=O)c2cc(O)c(O)c(O)c2)[C@@H]1O)c1cc(O)c(O)c(O)c1", "note": "[Compound 11, 1,3,6-tri-O-galloyl-β-D-glucopyranose]", "IC50": "2.28 ± 0.07"}
{"smiles": "O=C(OC[C@H]1O[C@@H](OC(=O)c2cc(O)c(O)c(O)c2)[C@H](OC(=O)c2cc(O)c(O)c(O)c2)[C@@H](OC(=O)c2cc(O)c(O)c(O)c2)[C@@H]1OC(=O)c1cc(O)c(O)c(O)c1)c1cc(O)c(O)c(O)c1", "note": "[Compound 12, 1,2,3,4,6-penta-O-galloyl-β-D-glucopyranose]", "IC50": "0.1 ± 0.01"}
{"smiles": "O=C(O[C@@H]1O[C@@H]2COC(=O)c3cc(O)c(O)c(O)c3-c3c(cc(O)c(O)c3O)C(=O)O[C@H]([C@H]1O)[C@@H]2O)c1cc(O)c(O)c(O)c1", "note": "[Compound 13, corilagin]", "IC50": "3.12 ± 0.23"}
